Test results: US9440941B2, “Substituted chroman-6-yloxy-cycloalkanes and their use as pharmaceuticals” (SANOFI, priority 2013, dated 2016)
Structures can show the parent of a compound that is named as a salt.

The compounds below were run against T1, human NCX1 (Homo sapiens, UniProt P32418) (assay: Inhibition of Ca2+ influx into cells (NCX1 reverse mode), FLIPR Fluo-4 assay). Conditions: inhibition of NCX1 in reverse mode (Ca2+ influx into cells); read-out: NCX1rv IC50.
T1 construct: expressed in transfected cells
Type: cell-based
Outline: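 Ca2+ influx via reverse-mode exchange was evoked with gramicidin (20 µM final) after 45 min compound exposure at 16 °C in stably transfected CHO cells. Fluo-4 signal (520 nm) was followed on FLIPR at 2 s intervals. Max–min fluorescence gave percentage inhibition, from which IC50 was calculated.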

Row | Structure (SMILES) | IC50 [nM]
1 | CCn1nccc1CNC(=O)C1CCC(Oc2ccc3c(c2)CCC(c2ccccc2)O3)CC1 (stereo not drawn) [compound 14] | 400
2 | CCCC1(N)CCC(Oc2ccc3c(c2)CCC(c2ccccc2)O3)CC1 (stereo not drawn) [compound 17, hydrochloride] | 1000
3 | CO[C@H](C)C(=O)N[C@H]1CC[C@H](Oc2ccc3c(c2)CCC(c2ccccc2)O3)CC1 (stereo partly drawn) [compound 23] | 300
4 | CCCN(CCC)[C@H]1CC[C@H](Oc2ccc3c(c2)CC[C@@H](c2ccccc2)O3)CC1 [compound 34] | 1300
5 | c1ccc(C2CCc3cc(O[C@H]4CC[C@H](NCC5CCCCC5)CC4)ccc3O2)cc1 (stereo partly drawn) [compound 63, N-(Cyclohexylmethyl)-[trans-4-(2-phenylchroman-6-yloxy)]-cyclohexylamine] | 600
6 | CN[C@@H](C)C(=O)N[C@H]1CC[C@H](Oc2ccc3c(c2)CCC(c2ccccc2)O3)CC1 (stereo partly drawn) [compound 71, hydrochloride] | 600
7 | O=S(=O)(CCc1ccncc1)N[C@H]1CC[C@H](Oc2ccc3c(c2)CC[C@@H](c2ccccc2)O3)CC1 [compound 75] | 1000
8 | O=C1CCC(Oc2ccc3c(c2)CCC(c2ccccc2)O3)CC1 (stereo not drawn) [compound 77, 4-(2-Phenylchroman-6-yloxy)cyclohexanone] | 400
9 | CC(=O)OC1CCC(Oc2ccc3c(c2)CCC(c2ccccc2)O3)CC1 (stereo not drawn) [compound 78, [4-(2-Phenylchroman-6-yloxy)cyclohexyl] acetate] | 600
10 | c1ccc(C2CCc3cc(O[C@H]4CC[C@H](N(Cc5ccsc5)Cc5ccsc5)CC4)ccc3O2)cc1 (stereo partly drawn) [compound 79, [trans-4-(2-Phenylchroman-6-yloxy)]-N,N-bis(thiophen-3-ylmethyl)cyclohexylamine] | 11000
11 | c1ccc(C2CCc3cc(O[C@H]4CC[C@H](N(CC5CC5)CC5CC5)CC4)ccc3O2)cc1 (stereo partly drawn) [compound 80, N,N-Bis(cyclopropylmethyl)-[trans-4-(2-phenylchroman-6-yloxy)]-cyclohexylamine] | 500
12 | Cn1cc(Cl)c(CN(Cc2nn(C)cc2Cl)[C@H]2CC[C@H](Oc3ccc4c(c3)CCC(c3ccccc3)O4)CC2)n1 (stereo partly drawn) [compound 81, N,N-Bis(4-chloro-1-methyl-pyrazol-3-ylmethyl)-[trans-4-(2-phenylchroman-6-yloxy)]-cyclohexylamine] | 4000
13 | Cc1cc(CN(Cc2cc(C)on2)[C@H]2CC[C@H](Oc3ccc4c(c3)CCC(c3ccccc3)O4)CC2)no1 (stereo partly drawn) [compound 82, N,N-Bis(5-methylisoxazol-3-ylmethyl)-[trans-4-(2-phenylchroman-6-yloxy)]-cyclohexylamine] | 3800
14 | c1ccc(C2CCc3cc(O[C@H]4CC[C@H](N(Cc5cncs5)Cc5cncs5)CC4)ccc3O2)cc1 (stereo partly drawn) [compound 83, [trans-4-(2-Phenylchroman-6-yloxy)]-N,N-bis(thiazol-5-ylmethyl)cyclohexylamine] | 1400
15 | Cn1ccc(CN(Cc2ccn(C)n2)[C@H]2CC[C@H](Oc3ccc4c(c3)CCC(c3ccccc3)O4)CC2)n1 (stereo partly drawn) [compound 84, N,N-Bis(1-methylpyrazol-3-ylmethyl)-[trans-4-(2-phenylchroman-6-yloxy)]-cyclohexylamine] | 800
16 | Cc1nc(CN(Cc2csc(C)n2)[C@H]2CC[C@H](Oc3ccc4c(c3)CCC(c3ccccc3)O4)CC2)cs1 (stereo partly drawn) [compound 86, N,N-Bis(2-methylthiazol-4-ylmethyl)-[trans-4-(2-phenylchroman-6-yloxy)]-cyclohexylamine] | 800
17 | Cc1cc(CN(Cc2cc(C)n(C)n2)[C@H]2CC[C@H](Oc3ccc4c(c3)CCC(c3ccccc3)O4)CC2)nn1C (stereo partly drawn) [compound 87, N,N-Bis(1,5-dimethylpyrazol-3-ylmethyl)-[trans-4-(2-phenylchroman-6-yloxy)]-cyclohexylamine] | 1300
18 | CCC(C)CN(CC(C)CC)[C@H]1CC[C@H](Oc2ccc3c(c2)CCC(c2ccccc2)O3)CC1 (stereo partly drawn) [compound 88, N,N-Bis(2-methylbutyl)-[trans-4-(2-phenylchroman-6-yloxy)]-cyclohexylamine] | 2500
19 | O=C(OC1CCC(Oc2ccc3c(c2)CCC(c2ccccc2)O3)CC1)c1ccncc1F (stereo not drawn) [compound 89, 3-Fluoro-isonicotinic acid 4-(2-phenyl-chroman-6-yloxy)-cyclohexyl ester] | 400
20 | CCCC1(O)CCC(Oc2ccc3c(c2)CCC(c2ccccc2)O3)CC1 (stereo not drawn) [compound 90, 4-(2-Phenylchroman-6-yloxy)-1-propyl-cyclohexanol] | 200
21 | O=C(NCCO)C1CCC(Oc2ccc3c(c2)CC[C@H](c2ccccc2)O3)CC1 (stereo partly drawn) [compound 99] | 300
22 | CCC(C)CN(CCO)C1CCC(Oc2ccc3c(c2)CCC(c2ccccc2)O3)CC1 (stereo not drawn) [compound 100] | 1400

The next lines start with the values.

Row | IC50 [nM] | Structure (SMILES)
23 | 300 | O=C(NCc1ccno1)C1CCC(Oc2ccc3c(c2)CCC(c2ccccc2)O3)CC1 (stereo not drawn) [compound 13]
24 | 200 | OCCNC1CCC(Oc2ccc3c(c2)CCC(c2ccccc2)O3)CC1 (stereo not drawn) [compound 15]
25 | 1300 | CN(C)C(=O)NC1CCC(Oc2ccc3c(c2)CCC(c2ccccc2)O3)CC1 (stereo not drawn) [compound 16]
26 | 500 | CCCN[C@H]1CC[C@H](Oc2ccc3c(c2)CC[C@@H](c2ccccc2)O3)CC1 [compound 18]
27 | 500 | CSCCCN[C@H]1CC[C@H](Oc2ccc3c(c2)CCC(c2ccccc2)O3)CC1 (stereo partly drawn) [compound 48, N-(3-Methylsulfanylpropyl)-[trans-4-(2-phenylchroman-6-yloxy)]-cyclohexylamine]
28 | 600 | Cc1cc(CN[C@H]2CC[C@H](Oc3ccc4c(c3)CCC(c3ccccc3)O4)CC2)no1 (stereo partly drawn) [compound 49, N-(5-Methylisoxazol-3-ylmethyl)-[trans-4-(2-phenylchroman-6-yloxy)]-cyclohexylamine]
29 | 500 | Cc1csc(CN[C@H]2CC[C@H](Oc3ccc4c(c3)CCC(c3ccccc3)O4)CC2)n1 (stereo partly drawn) [compound 52, N-[(4-Methylthiazol-2-yl)methyl]-[trans-4-(2-phenylchroman-6-yloxy)]-cyclohexylamine]
30 | 500 | c1ccc(C2CCc3cc(O[C@H]4CC[C@H](NCc5ccoc5)CC4)ccc3O2)cc1 (stereo partly drawn) [compound 53, N-(Furan-3-ylmethyl)-[trans-4-(2-phenylchroman-6-yloxy)]-cyclohexylamine]
31 | 500 | Cc1cc(CN[C@H]2CC[C@H](Oc3ccc4c(c3)CCC(c3ccccc3)O4)CC2)nn1C (stereo partly drawn) [compound 56, N-(1,5-Dimethylpyrazol-3-ylmethyl)-[trans-4-(2-phenylchroman-6-yloxy)]-cyclohexylamine]
32 | 500 | Cn1cncc1CN[C@H]1CC[C@H](Oc2ccc3c(c2)CCC(c2ccccc2)O3)CC1 (stereo partly drawn) [compound 57, N-(3-Methylimidazol-4-ylmethyl)-[trans-4-(2-phenylchroman-6-yloxy)]-cyclohexylamine]
33 | 500 | Cc1nc(CN[C@H]2CC[C@H](Oc3ccc4c(c3)CCC(c3ccccc3)O4)CC2)cs1 (stereo partly drawn) [compound 59, N-(2-Methylthiazol-4-ylmethyl)-[trans-4-(2-phenylchroman-6-yloxy)]-cyclohexylamine]
34 | 600 | Cn1cc(Cl)c(CN[C@H]2CC[C@H](Oc3ccc4c(c3)CCC(c3ccccc3)O4)CC2)n1 (stereo partly drawn) [compound 62, N-(4-Chloro-1-methyl-pyrazol-3-ylmethyl)-[trans-4-(2-phenylchroman-6-yloxy)]-cyclohexylamine]
35 | 500 | CSC(C)CCN[C@H]1CC[C@H](Oc2ccc3c(c2)CCC(c2ccccc2)O3)CC1 (stereo partly drawn) [compound 64, N-(3-Methylsulfanylbutyl)-[trans-4-(2-phenylchroman-6-yloxy)]-cyclohexylamine]
36 | 400 | CC(C)CN[C@H]1CC[C@H](Oc2ccc3c(c2)CCC(c2ccccc2)O3)CC1 (stereo partly drawn) [compound 65, N-Isobutyl-[trans-4-(2-phenylchroman-6-yloxy)]-cyclohexylamine]
37 | 400 | Cc1n[nH]cc1CN[C@H]1CC[C@H](Oc2ccc3c(c2)CCC(c2ccccc2)O3)CC1 (stereo partly drawn) [compound 66]
38 | 400 | Cc1ncsc1CN[C@H]1CC[C@H](Oc2ccc3c(c2)CCC(c2ccccc2)O3)CC1 (stereo partly drawn) [compound 67, N-(4-Methylthiazol-5-ylmethyl)-[trans-4-(2-phenylchroman-6-yloxy)]-cyclohexylamine]
39 | 300 | CCn1cc(CN[C@H]2CC[C@H](Oc3ccc4c(c3)CCC(c3ccccc3)O4)CC2)c(C)n1 (stereo partly drawn) [compound 68, N-(1-Ethyl-3-methyl-pyrazol-4-ylmethyl)-[trans-4-(2-phenylchroman-6-yloxy)]-cyclohexylamine]
40 | 1300 | Clc1ccc(CN[C@H]2CC[C@H](Oc3ccc4c(c3)CCC(c3ccccc3)O4)CC2)s1 (stereo partly drawn) [compound 69, N-(5-Chloro-thiophen-2-ylmethyl)-[trans-4-(2-phenylchroman-6-yloxy)]-cyclohexylamine]
41 | 500 | CCC(C)CN[C@H]1CC[C@H](Oc2ccc3c(c2)CCC(c2ccccc2)O3)CC1 (stereo partly drawn) [compound 70, N-(2-methylbutyl)-[trans-4-(2-phenylchroman-6-yloxy)]-cyclohexylamine]
42 | 300 | C[C@@H](N)C(=O)N[C@H]1CC[C@H](Oc2ccc3c(c2)CCC(c2ccccc2)O3)CC1 (stereo partly drawn) [compound 72, hydrochloride]
43 | 300 | OC1CCC(Oc2ccc3c(c2)CCC(c2ccccc2)O3)CC1 (stereo not drawn) [compound 74, 4-(2-Phenylchroman-6-yloxy)cyclohexanol]
44 | 1000 | CCn1nccc1CNC1CCC(Oc2ccc3c(c2)CCC(c2ccccc2)O3)CC1 (stereo not drawn) [compound 76]
45 | 800 | c1ccc(C2CCc3cc(O[C@H]4CC[C@H](N(Cc5ccoc5)Cc5ccoc5)CC4)ccc3O2)cc1 (stereo partly drawn) [compound 85, N,N-Bis(furan-3-ylmethyl)-[trans-4-(2-phenylchroman-6-yloxy)]-cyclohexylamine]
46 | 500 | Cc1nc(CNC2CCC(Oc3ccc4c(c3)CCC(c3ccccc3)O4)CC2)no1 (stereo not drawn) [compound 97]
47 | 600 | CC(C)CCNC1CCC(Oc2ccc3c(c2)CCC(c2ccccc2)O3)CC1 (stereo not drawn) [compound 98]
48 | 900 | CCC(C)CNC1CCC(Oc2ccc3c(c2)CCC(c2ccccc2)O3)CC1 (stereo not drawn) [compound 101]
